Reference: publication PMC10016038, “Enhanced Endosomal Signaling and Desensitization of GLP-1R vs GIPR in Pancreatic Beta Cells” (Endocrinology, 2023)
Entries after “also recorded” stand apart in the source; their conditions may differ.

How the values were obtained:
INS-1 832/3 WT cells = assay: Insulin secretion assay, INS-1 832/3 WT cells; assay type: cell-based, rat; conditions: 100 nM, 11 mM glucose; WT n = 3
Description: (§1) At the end of the treatments, the supernatant containing the secreted insulin was collected, centrifuged at 1000g for 3 minutes, and transferred to a fresh tube. To determine total insulin content, cells were lysed using KRBH buffer + 1% w/v BSA + 1% v/v Triton X-100 (Sigma). The lysates were sonicated 3 × 10 seconds in a water bath sonicator and centrifuged at 10 000g for 10 minutes, and the supernatants collected. The samples were stored at −20 °C until the insulin concentration was determined using an Insulin Ultra-Sensitive HTRF Assay kit (62IN2PEG, Cisbio, Codolet, France) according to the manufacturer's instructions.
(§2) Figure 7. Functional analysis of GLP-1R vs GIPR signaling in beta cells. […] Data are mean ± SEM, compared by paired t tests; *P < .05; ns, nonsignificant.

SNAP-tagged human GIPR = assay: Colocalization with SNX27-GFP, SNAP-GIPR; assay type: cell-based; conditions: 3 hours stimulation with 100 nM
GIPR-SmBiT = assay: Mini-G protein/β-arrestin 2 recruitment NanoBiT, GIPR; assay type: cell-based; conditions: 100 nM GIP, n = 5
Description: (§3) Here the SmBiT was cloned in frame at the C-terminus of the GLP-1R and the GIPR by substitution of the Tango sequence on FLAG-tagged GLP-1R-Tango or GIPR-Tango (a gift from Prof. Bryan Roth, University of North Carolina, USA; Addgene plasmids #66291 and #66294), respectively. Mini-Gs, mini-Gq, and mini-Gi plasmids, tagged at the N-terminus with LgBiT, were a gift from Prof. Nevin Lambert, Medical College of Georgia, USA. For β-arrestin 2 recruitment assays, β-arrestin 2 fused at the N-terminus to LgBiT (LgBiT-β-arrestin 2; Promega, plasmid no. CS1603B118) was chosen as it has previously been used successfully with other class B GPCRs. […]
(§4) All NanoBiT and NanoBRET readings were obtained in a Flexstation 3 plate reader. […] Readings were normalized to well baseline and then to average vehicle-induced signal to establish the agonist-induced effect. AUCs from response curves were calculated for each agonist concentration and fitted to four-parameter curves using Prism 9 (GraphPad).
(§5) Figure 5. […] (A) Kinetics of Gαs, Gαq, Gαi, and β-arrestin 2 recruitment to the GLP-1R assessed by NanoBiT complementation assay in INS-1 832/3 GLP-1R KO cells transiently expressing GLP-1R-SmBiT and the corresponding mini-G protein subtype or β-arrestin 2. […]

GLP-1R-SmBiT = assay: Mini-G protein/β-arrestin 2 recruitment NanoBiT, GLP-1R; assay type: cell-based; conditions: 100 nM GLP-1, 30 minutes, n = 5
Description: as §3, §4, §5

SNAP-GLP-1R = assay: Nb37 bystander NanoBiT, plasma membrane (CAAX), GLP-1R; assay type: cell-based, human; conditions: 30-minute AUC, n = 4
Description: The Nb37 assay constructs were kindly provided by Prof. Asuka Inoue, Tohoku University, Japan. Nb37 (gene synthesized by GenScript with codon optimization) was C-terminally fused to SmBiT with a 15 amino acid flexible linker ([…]), and the resulting construct referred to as Nb37-SmBiT. The C-terminal KRAS CAAX motif ([…]) was N-terminally fused with LgBiT (LgBiT-CAAX). The Endofin FYVE domain (amino acid region Gln739-Lys806) was C-terminally fused with LgBiT (Endofin-LgBiT). Gαs (human, short isoform), Gβ1 (human), Gγ2 (human), and RIC8B (human, isoform 2) plasmids were inserted into pcDNA3.1 or pCAGGS expression plasmid vectors. INS-1 832/3 GLP-1R KO or GIPR KO cells were seeded in 6-well plates and co-transfected with 0.1 μg SNAP-GLP-1R or SNAP-GIPR, 0.5 μg Gαs, Gβ1, and Gγ2, 0.1 μg RIC8B, 0.1 μg CAAX-LgBiT or 0.5 μg Endofin-LgBiT with 0.1 μg or 0.5 μg Nb37-SmBiT, respectively, with 0.8 µg pcDNA3.1 added to the former to equalize DNA content.
as §4, with “(GraphPad). […]” for “(GraphPad).”

[1] = system: INS-1 832/3 GLP-1R KO cells; assay: Insulin secretion assay, GLP-1R KO cells; assay type: cell-based, rat; conditions: 100 nM, 11 mM glucose; n = 5
Description: as §1, §2

| Substance | Insulin secretion, GIP compared with GLP-1 (INS-1 832/3 WT cells) | SNAP-GIPR colocalization with SNX27 (SNAP-tagged human GIPR) | GIPR responses for all readouts (Gαs, Gαq, Gαi, β-arrestin 2) compared with GLP-1R (GIPR-SmBiT; 30 minutes) | Gαs recruitment to the GIPR (GIPR-SmBiT) | Gαi coupling of GLP-1R (GLP-1R-SmBiT) | Gαs coupling of GLP-1R (GLP-1R-SmBiT) | Recruitment of Nb37 to active GLP-1Rs vs GIPRs within the plasma membrane (SNAP-GLP-1R) | Insulin secretion response in GLP-1R KO cells [1] |
| --- | --- | --- | --- | --- | --- | --- | --- | --- |
| GIP(1-42) | nonsignificant tendency toward improvement; also recorded: tendency toward increased | sustained | markedly reduced for all readouts | almost as low as those obtained for Gαi | – | – | – | – |
| GLP-1(7-36)NH2 | – | – | – | – | minimum coupling | preferentially coupled to Gαs | no significant differences | abolished |
